Data published in patent US10219516B2, “Molecules having pesticidal utility, and intermediates, compositions, and processes, related thereto” (priority 2015, dated 2019).

Columns and labels:
[1] = test system: Beet Armyworm (Spodoptera exigua, LAPHEG); assay: Bioassay on Beet Armyworm (BAW), 128-well diet tray assay; type: in vivo; settings: Beet Armyworm, 128-well diet tray assay, read-out: BAW rating
Method in brief: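 Artificial diet surface-treated with 50 μg/cm^2 test molecule in 90:10 acetone-water, dried, then infested with one to five second instar larvae per well. Held covered and vented at 25° C., 14:10 light-dark for five to seven days; percent mortality recorded per well and averaged over eight wells.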

[2] = test system: Cabbage Looper (Trichoplusia ni, TRIPNI); assay: Bioassay on Cabbage Looper (CL), 128-well diet tray assay; type: in vivo; settings: Trichoplusia ni; Cabbage Looper, 128-well diet tray assay; read-out: CL rating
Method in brief: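 Using eight wells per molecule, artificial diet was dosed at 50 μg/cm^2 with compound in 90:10 acetone-water and dried before one to five second-instar larvae were added per well. Covered vented trays were kept at 25° C. with 14:10 light-dark for five to seven days, then per-well percent mortality was recorded and averaged.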

| SMILES | pest or weed control at 50 µg/cm2 [1] [%] | pest or weed control at 50 µg/cm2 [2] [%] |
| --- | --- | --- |
| O=C(Nc1ccc(-c2ncco2)cc1)c1cc(NC(=O)[C@H]2[C@H](c3cc(Cl)cc(Cl)c3)C2(Cl)Cl)ccc1Cl (relative stereo) [F446, trans-2-Chloro-5-(2,2-dichloro-3-(3,5-dichlorophenyl)cyclopropane-1-carboxamido)-N-(4-(oxazol-2-yl)phenyl)benzamide] | 50 to 100 | 50 to 100 |
| O=C(Nc1ccc2c(ccn2Cc2ccccc2)c1)c1cc(NC(=O)[C@H]2[C@H](c3cc(Cl)cc(Cl)c3)C2(Cl)Cl)ccc1Cl (relative stereo) [F458, N-(1-Benzyl-1H-indol-5-yl)-2-chloro-5-(trans)-(2,2-dichloro-3-(3,5-dichlorophenyl)cyclopropane-1-carboxamido)benzamide] | 50 to 100 | 50 to 100 |
| O=C(Nc1ccc2[nH]c(C(F)(F)F)cc2c1)c1cc(NC(=O)[C@H]2[C@H](c3cc(Cl)cc(Cl)c3)C2(Cl)Cl)ccc1Cl (relative stereo) [F465, 2-Chloro-5-(trans)-(2,2-dichloro-3-(3,5-dichlorophenyl)cyclopropane-1-carboxamido)-N-(2-(trifluoromethyl)-1H-indol-5-yl)benzamide] | 50 to 100 | 50 to 100 |
| CN(C(=O)OC(C)(C)C)c1cc(NC(=O)c2cc(NC(=O)[C@H]3[C@H](c4cc(Cl)cc(Cl)c4)C3(Cl)Cl)ccc2Cl)ccc1F (relative stereo) [F471, trans-tert-Butyl (5-(2-chloro-5-(2,2-dichloro-3-(3,5-dichlorophenyl)cyclopropane-1-carboxamido)benzamido)-2-fluorophenyl)(methyl)carbamate] | 50 to 100 | 50 to 100 |
| CC(C)(C)OC(=O)n1ccc2cc(NC(=O)c3cc(NC(=O)[C@H]4[C@H](c5cc(Cl)cc(Cl)c5)C4(Cl)Cl)ccc3Cl)ccc21 (relative stereo) [F484, tert-Butyl 5-(2-chloro-5-(trans)-(2,2-dichloro-3-(3,5-dichlorophenyl)cyclopropane-1-carboxamido)benzamido)-1H-indole-1-carboxylate] | 50 to 100 | 50 to 100 |
| CC(C)(C)OC(=O)Nc1cccc(NC(=O)c2cc(NC(=O)[C@H]3[C@H](c4cc(Cl)cc(Cl)c4)C3(Cl)Cl)ccc2Cl)n1 (relative stereo) [F505, tert-Butyl (6-(2-chloro-5-(trans-2,2-dichloro-3-(3,5-dichlorophenyl)cyclopropane-1-carboxamido)benzamido)pyridin-2-yl)carbamate] | 50 to 100 | 50 to 100 |
| O=C(Nc1ncc(F)cc1F)c1cc(NC(=O)[C@H]2[C@H](c3cc(Cl)cc(C(F)F)c3)C2(Cl)Cl)ccc1Cl (relative stereo) [F584, 2-Chloro-5-(trans-2,2-dichloro-3-(3-chloro-5-(difluoromethyl)phenyl)cyclopropane-1-carboxamido)-N-(3,5-difluoropyridin-2-yl)benzamide] | 50 to 100 | 50 to 100 |
| O=C(Nc1ccc(F)cc1)c1cc(NC(=O)[C@H]2[C@H](c3cc(F)cc(Cl)c3)C2(Cl)Cl)ccc1Cl (relative stereo) [PF1, trans-2-Chloro-5-(2,2-dichloro-3-(3-chloro-5-fluorophenyl)cyclopropane-1-carboxamido)-N-(4-fluorophenyl)benzamide] | 50 to 100 | 50 to 100 |
| CN(C(=O)c1cc(NC(=O)[C@H]2[C@H](c3cc(F)cc(Cl)c3)C2(Cl)Cl)ccc1Cl)c1ccc(F)cc1 (relative stereo) [PF2, trans-2-Chloro-5-(2,2-dichloro-3-(3-chloro-5-fluorophenyl)cyclopropane-1-carboxamido)-N-(4-fluorophenyl)-N-methylbenzamide] | 50 to 100 | 50 to 100 |
| CN(C(=O)c1cc(NC(=O)[C@H]2[C@H](c3cc(Cl)cc(Cl)c3)C2(Br)Br)ccc1Cl)c1ccc(F)cc1 (relative stereo) [PF7, trans-2-Chloro-5-(2,2-dibromo-3-(3,5-dichlorophenyl)cyclopropane-1-carboxamido)-N-(4-fluorophenyl)-N-methylbenzamide] | 50 to 100 | 50 to 100 |
| CN(C(=O)OC(C)(C)C)c1ccc(NC(=O)c2cc(NC(=O)[C@H]3[C@H](c4cc(Cl)cc(Cl)c4)C3(Cl)Cl)ccc2Cl)cc1 (relative stereo) [PF12, trans-tert-Butyl-(4-(2-chloro-5-(2,2-dichloro-3-(3,5-dichlorophenyl)cyclopropane-1-carboxamido)benzamido)phenyl)(methyl)carbamate] | 50 to 100 | 50 to 100 |
| CC(=O)N(C)c1ccc(NC(=O)c2cc(NC(=O)[C@H]3[C@H](c4cc(Cl)cc(Cl)c4)C3(Cl)Cl)ccc2Cl)cc1 (relative stereo) [PF14, trans-2-Chloro-5-(2,2-dichloro-3-(3,5-dichlorophenyl)cyclopropane-1-carboxamido)-N-(4-(N-methylacetamido)phenyl)benzamide] | 50 to 100 | 50 to 100 |
| COCC(=O)Nc1ccc(NC(=O)c2cc(NC(=O)[C@H]3[C@H](c4cc(Cl)cc(Cl)c4)C3(Cl)Cl)ccc2Cl)cc1 (relative stereo) [PF27, trans-2-Chloro-5-(2,2-dichloro-3-(3,5-dichlorophenyl)cyclopropane-1-carboxamido)-N-(4-(2-methoxyacetamido)phenyl)benzamide] | 50 to 100 | 50 to 100 |
| O=C(Cc1ccccc1)Nc1ccc(NC(=O)c2cc(NC(=O)[C@H]3[C@H](c4cc(Cl)cc(Cl)c4)C3(Cl)Cl)ccc2Cl)cc1 (relative stereo) [PF28, trans-2-Chloro-5-(2,2-dichloro-3-(3,5-dichlorophenyl)cyclopropane-1-carboxamido)-N-(4-(2-phenylacetamido)phenyl)benzamide] | 50 to 100 | 50 to 100 |
| CN(C(=O)C(F)(F)F)c1ccc(NC(=O)c2cc(NC(=O)[C@H]3[C@H](c4cc(Cl)cc(Cl)c4)C3(Cl)Cl)ccc2Cl)cc1 (relative stereo) [PF29, trans-2-Chloro-5-(2,2-dichloro-3-(3,5-dichlorophenyl)cyclopropane-1-carboxamido)-N-(4-(2,2,2-trifluoro-N-methylacetamido)phenyl)benzamide] | 50 to 100 | 50 to 100 |
| O=C(Nc1ccc(F)cc1)c1cc(NC(=O)[C@H]2[C@H](c3ccc(Cl)c(F)c3)C2(Cl)Cl)ccc1Cl (relative stereo) [PF34, trans-2-Chloro-5-(2,2-dichloro-3-(4-chloro-3-fluorophenyl)cyclopropane-1-carboxamido)-N-(4-fluorophenyl)benzamide] | 50 to 100 | 50 to 100 |
| O=C(Nc1ccc(F)cc1F)c1cc(NC(=O)[C@H]2[C@H](c3cc(Cl)cc(Br)c3)C2(Cl)Cl)ccc1Cl (relative stereo) [PF39, 5-(trans-3-(3-Bromo-5-chlorophenyl)-2,2-dichlorocyclopropane-1-carboxamido)-2-chloro-N-(2,4-difluorophenyl)benzamide] | 50 to 100 | 50 to 100 |
